# Results published in patent publication US12421210B2, “Fused bicyclic heterocycles as therapeutic agents” (NEW YORK UNIVERSITY, priority 2018, dated 2025).
# Biological target: human NAMPT enzyme (His-hNAMPT) (Homo sapiens (Human), UniProt P43490)
# Experiment: NAMPT enzymatic inhibition assay (fluorescence, NADH product)
# Format: biochemical
# Conditions: [BPS]; read-out: NAMPT IC50 (μM) [BPS]
# Procedure: The compounds were then diluted 20 fold in an intermediate dilution to 5% DMSO and water. Finally 10 μL of each compound was added to the assay plate, in duplicate, with highest concentration at 30 μM and the lowest at 0.001 μM in a final volume of 50 μL and 1% DMSO concentration. Each assay also tested, in parallel, two reference compounds, FK866 and GMX1778, with highest concentration at 10 μM and lowest at 0.0003 μM. 200 ng of human NAMPT enzyme (His-hNAMPT obtained from E. coli expression system) diluted in […] (tris-buffered saline-Polysorbate 20) 1× was added to each well in a volume of 10 μL and the compounds were incubated with the enzyme at room temperature for 20 minutes. After the incubation, 30 μL of master mixture were added to each well. The master mixture contained: 50 mM Tris-HCl, pH 8.0, 12.5 mM MgCl2, 20 μM nicotinamide, 40 μM phosphoribosyl pyrophosphate (PRPP), 20 μM adenosine triphosphate (ATP), 30 μg/mL of alcohol dehydrogenase, 10 μg/mL of NMNAT, 1.5% alcohol, 1 mM dithiothreitol (DTT), 0.02% bovine serum albumin (BSA), 0.01% Tween 20. The reaction was performed at 30° C. for 60 minutes. Fluorescence intensity was measured at an excitation of 340 nm and an emission of 460 nm using a Tecan Infinite M1000 microplate reader. The fluorescence values indicated increase of NADH product.
# Enzyme activity assay was performed in duplicate at each concentration. The fluorescence data was analyzed and compared. In the absence of the compound, the intensity (Ce) in each data set was defined as 100% activity. In the absence of enzyme, the intensity (C0) in each data set was defined as 0% activity. The percent activity in the presence of each compound was calculated according to the following equation: % activity=(C−C0)/(Ce−C0), where C is the fluorescence in the presence of the compound.
# The % activity vs. compound concentrations were then plotted using non-linear regression analysis of Sigmoidal dose-response curve generated with the equation Y=B+(T−B)/1+10^((Log EC50-X)×Hill Slope), where Y is percent activity, B is minimum percent activity, T is maximum percent activity, X is logarithm of compound and Hill Slope=slope factor or Hill coefficient.
# Sequence of human NAMPT enzyme (His-hNAMPT) (P43490 whole entry): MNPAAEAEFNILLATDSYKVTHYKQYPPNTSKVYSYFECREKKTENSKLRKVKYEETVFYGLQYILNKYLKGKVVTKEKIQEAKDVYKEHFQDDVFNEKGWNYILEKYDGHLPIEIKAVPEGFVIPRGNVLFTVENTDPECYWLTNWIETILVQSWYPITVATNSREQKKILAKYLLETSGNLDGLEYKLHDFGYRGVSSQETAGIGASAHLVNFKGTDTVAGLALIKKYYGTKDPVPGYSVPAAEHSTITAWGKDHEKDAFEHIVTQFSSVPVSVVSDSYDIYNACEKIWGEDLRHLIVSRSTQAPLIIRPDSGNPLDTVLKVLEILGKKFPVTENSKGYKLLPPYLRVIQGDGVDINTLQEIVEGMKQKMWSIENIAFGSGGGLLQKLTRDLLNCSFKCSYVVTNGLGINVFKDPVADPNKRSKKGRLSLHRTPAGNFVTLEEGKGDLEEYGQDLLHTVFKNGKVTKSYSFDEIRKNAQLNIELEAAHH
row,Compound,IC50 [µM]
1,"CC1(OC(=O)N2C[C@@H]3[C@@H](CCNC(=O)C4C[C@@H]4c4cccnc4)[C@@H]3C2)COC1 (mixture of isomers) [Example 53, (1R,5S,6s)-3-methyloxetan-3-yl 6-(2-((1S,2S)-2-(pyridin-3-yl)cyclopropanecarboxamido)ethyl)-3-azabicyclo[3.1.0]hexane-3-carboxylate and (1R,5S,6s)-3-methyloxetan-3-yl 6-(2-((1R,2R)-2-(pyridin-3-yl)cyclopropanecarboxamido)ethyl)-3-azabicyclo[3.1.0]hexane-3-carboxylate]",0.01 to 0.49
2,"O=C(/C=C/c1cccnc1)NCC[C@H]1[C@@H]2CN(c3ccccc3)C(=O)[C@H]12 (racemic) [Example 256 racemic, (E)-N-(2-((1R,5S,6S)-2-oxo-3-phenyl-3-azabicyclo[3.1.0]hexan-6-yl)ethyl)-3-(pyridin-3-yl)acrylamide and (E)-N-(2-((1S,5R,6R)-2-oxo-3-phenyl-3-azabicyclo[3.1.0]hexan-6-yl)ethyl)-3-(pyridin-3-yl)acrylamide]",0.01 to 0.49
3,"O=C(/C=C/c1cccnc1)NCC[C@@H]1[C@H]2CN(Cc3ccccc3)C(=O)[C@@H]12 (racemic) [Example 257, (E)-N-(2-((1R,5S,6S)-3-benzyl-2-oxo-3-azabicyclo[3.1.0]hexan-6-yl)ethyl)-3-(pyridin-3-yl)acrylamide and (E)-N-(2-((1S,5R,6R)-3-benzyl-2-oxo-3-azabicyclo[3.1.0]hexan-6-yl)ethyl)-3-(pyridin-3-yl)acrylamide]",0.01 to 0.49
4,"Nc1ccc(/C=C/C(=O)NCC[C@@H]2[C@H]3CN(Cc4ccccc4)C(=O)[C@@H]23)cn1 (racemic) [Example 258, (E)-3-(6-aminopyridin-3-yl)-N-(2-((1R,5S,6S)-3-benzyl-2-oxo-3-azabicyclo[3.1.0]hexan-6-yl)ethyl)acrylamide and (E)-3-(6-aminopyridin-3-yl)-N-(2-((1S,5R,6R)-3-benzyl-2-oxo-3-azabicyclo[3.1.0]hexan-6-yl)ethyl)acrylamide]",0.01 to 0.49
5,"Nc1ccc(/C=C/C(=O)NCC[C@@H]2[C@H]3CN(c4ccccc4)C(=O)[C@@H]23)cn1 (racemic) [Example 259, (E)-3-(6-aminopyridin-3-yl)-N-(2-((1S,5R,6R)-2-oxo-3-phenyl-3-azabicyclo[3.1.0]hexan-6-yl)ethyl)acrylamide and (E)-3-(6-aminopyridin-3-yl)-N-(2-((1R,5S,6S)-2-oxo-3-phenyl-3-azabicyclo[3.1.0]hexan-6-yl)ethyl)acrylamide]",0.01 to 0.49
6,"CC(C)(C)OC(=O)N1C[C@@H]2[C@@H](CCNC(=O)/C=C/c3cccnc3)[C@@H]2C1 [Example 1, (1R,5S,6s)-tert-butyl 6-(2-((E)-3-(pyridin-3-yl)acrylamido)ethyl)-3-azabicyclo[3.1.0]hexane-3-carboxylate]",< 0.01
7,"CC(C)(C)OC(=O)N1C[C@@H]2[C@@H](CCNC(=O)COc3cccnc3)[C@@H]2C1 [Example 2, (1R,5S,6s)-tert-butyl 6-(2-(2-(pyridin-3-yloxy)acetamido)ethyl)-3-azabicyclo[3.1.0]hexane-3-carboxylate]",0.01 to 0.49

# Now from value to molecule:
row,IC50 [µM],Compound
1,0.5 to 0.99,"O=C(NCC[C@@H]1[C@H]2CN(c3ccccc3)C(=O)[C@@H]12)c1cc2ccncc2o1 (racemic) [Example 260, N-(2-((1R,5S,6S)-2-oxo-3-phenyl-3-azabicyclo[3.1.0]hexan-6-yl)ethyl)furo[2,3-c]pyridine-2-carboxamide and N-(2-((1S,5R,6R)-2-oxo-3-phenyl-3-azabicyclo[3.1.0]hexan-6-yl)ethyl)furo[2,3-c]pyridine-2-carboxamide]"
2,1 to 29,"CC(C)(C)OC(=O)N1C[C@H]2CCC(CNC(=O)NCc3cccnc3)C[C@H]2C1 (stereo in doubt) [Example 269, tert-butyl 5-((3-(pyridin-3-ylmethyl)ureido)methyl)hexahydro-1H-isoindole-2(3H)-carboxylate]"
3,0.01 to 0.49,"CC(C)(C)OC(=O)N1C[C@H]2CCC(CNC(=O)N3Cc4ccncc4C3)C[C@H]2C1 (stereo in doubt) [Example 270, tert-butyl 5-((2,3-dihydro-1H-pyrrolo[3,4-c]pyridine-2-carboxamido)methyl)hexahydro-1H-isoindole-2(3H)-carboxylate]"

# Same assay, conditions: [HDB]; read-out: NAMPT IC50 (μM) [HDB]
row,Compound,IC50 [µM]
1,"O=C(/C=C/c1cccnc1)NCC[C@@H]1[C@H]2CN(c3ccc(F)cc3)C(=O)[C@@H]12 (mixture of isomers) [Example 264, (E)-N-(2-((1R,5S,6S)-3-(4-fluorophenyl)-2-oxo-3-azabicyclo[3.1.0]hexan-6-yl)ethyl)-3-(pyridin-3-yl)acrylamide and (E)-N-(2-((1S,5R,6R)-3-(4-fluorophenyl)-2-oxo-3-azabicyclo[3.1.0]hexan-6-yl)ethyl)-3-(pyridin-3-yl)acrylamide]",0.01 to 0.49
2,"O=C(/C=C/c1cccnc1)NCC[C@H]1[C@@H]2CN(c3ccccc3)C(=O)[C@H]12 (racemic) [Example 256 racemic, (E)-N-(2-((1R,5S,6S)-2-oxo-3-phenyl-3-azabicyclo[3.1.0]hexan-6-yl)ethyl)-3-(pyridin-3-yl)acrylamide and (E)-N-(2-((1S,5R,6R)-2-oxo-3-phenyl-3-azabicyclo[3.1.0]hexan-6-yl)ethyl)-3-(pyridin-3-yl)acrylamide]",0.01 to 0.49

# Second part, the molecule after the results:
row,IC50 [µM],Compound
1,0.01 to 0.49,"O=C(/C=C/c1cccnc1)NCC[C@@H]1[C@H]2CN(c3cccc(C(F)(F)F)c3)C(=O)[C@@H]12 (racemic) [Example 262, (E)-N-(2-((1R,5S,6S)-2-oxo-3-(3-(trifluoromethyl)phenyl)-3-azabicyclo[3.1.0]hexan-6-yl)ethyl)-3-(pyridin-3-yl)acrylamide and (E)-N-(2-((1S,5R,6R)-2-oxo-3-(3-(trifluoromethyl)phenyl)-3-azabicyclo[3.1.0]hexan-6-yl)ethyl)-3-(pyridin-3-yl)acrylamide]"
2,0.01 to 0.49,"Nc1ccc(/C=C/C(=O)NCC[C@@H]2[C@H]3CN(c4cccc(C(F)(F)F)c4)C(=O)[C@@H]23)cn1 (racemic) [Example 263, (E)-3-(6-aminopyridin-3-yl)-N-(2-((1R,5S,6S)-2-oxo-3-(3-(trifluoromethyl)phenyl)-3-azabicyclo[3.1.0]hexan-6-yl)ethyl)acrylamide and (E)-3-(6-aminopyridin-3-yl)-N-(2-((1S,5R,6R)-2-oxo-3-(3-(trifluoromethyl)phenyl)-3-azabicyclo[3.1.0]hexan-6-yl)ethyl)acrylamide]"
3,0.01 to 0.49,"O=C(NCC[C@@H]1[C@H]2CN(c3ccc(F)cc3)C(=O)[C@@H]12)N1Cc2ccccc2C1 (racemic) [Example 266, N-(2-((1R,5S,6S)-3-(4-fluorophenyl)-2-oxo-3-azabicyclo[3.1.0]hexan-6-yl)ethyl)isoindoline-2-carboxamide and N-(2-((1S,5R,6R)-3-(4-fluorophenyl)-2-oxo-3-azabicyclo[3.1.0]hexan-6-yl)ethyl)isoindoline-2-carboxamide]"
4,0.01 to 0.49,"O=C(NCC[C@H]1[C@@H]2CN(c3ccccc3)C(=O)[C@H]12)c1cc(-c2cccnc2)on1 (stereo in doubt) [Example 261, N-(2-((1R,5S,6S)-2-oxo-3-phenyl-3-azabicyclo[3.1.0]hexan-6-yl)ethyl)-5-(pyridin-3-yl)isoxazole-3-carboxamide/N-(2-((1S,5R,6R)-2-oxo-3-phenyl-3-azabicyclo[3.1.0]hexan-6-yl)ethyl)-5-(pyridin-3-yl)isoxazole-3-carboxamide]"
5,0.01 to 0.49,"O=C(NCC[C@H]1[C@@H]2CN(c3ccc(F)cc3)C(=O)[C@H]12)c1cc(-c2cccnc2)on1 (stereo in doubt) [Example 265, N-(2-((1R,5,6S)-3-(4-fluorophenyl)-2-oxo-3-azabicyclo[3.1.0]hexan-6-yl)ethyl)-5-(pyridin-3-yl)isoxazole-3-carboxamide and N-(2-((1S,5R,6R)-3-(4-fluorophenyl)-2-oxo-3-azabicyclo[3.1.0]hexan-6-yl)ethyl)-5-(pyridin-3-yl)isoxazole-3-carboxamide]"
